In patent publication US20230390228A1, “TREATMENT METHODS USING GHB” (Jazz Pharmaceuticals Ireland Limited, priority 2020, published 2023):

Key:
[1] = system: patients with fibromyalgia; assay: Randomized, double-blind, placebo-controlled fibromyalgia study (Example 1), analysed by baseline slow wave sleep (Example 2); assay type: in vivo, human; settings: for response to oxybate (dose dependence) / change from baseline in Fibromyalgia Impact Questionnaire (FIQ) / change from baseline in pain visual analog scale (PVAS): FIG. 1; for change from baseline in Fibromyalgia Impact Questionnaire (FIQ) / change from baseline in pain visual analog scale (PVAS): Xyrem 4.5 g or 6 g/night vs placebo, 8 weeks
Text: This study was a randomized, double-blind, placebo-controlled, parallel group study in subjects diagnosed with fibromyalgia.
The ACR criteria included: presence of widespread pain for more than 3 months in all 4 quadrants of the body as well as along the spine and the elicitation of pain at 11 or more out of 18 anatomically defined tender points upon palpation with a force of 4 kg.
Subjects underwent screening assessments. Subjects who met the eligibility criteria underwent a drug withdrawal and washout period during which time pain medications and any treatment for fibromyalgia were gradually withdrawn. At the end of the 2-week baseline assessment period, subjects who continued to meet inclusion/exclusion criteria and who reported an average pain score above 4 (on a visual analog scale [VAS] of 0 to 10) during the last week of the baseline period were randomized to 1 of 3 treatment groups: Xyrem 4.5 g/night, Xyrem 6 g/night, or placebo (half of the subjects randomized to placebo received placebo matching 4.5 g and the other half received placebo matching 6 g).
Test Product, Dose, Mode of Administration, and Duration of Treatment: • Sodium oxybate 4.5 g, oral solution (9 mL) taken in 2 equally divided doses (4.5 mL added to 2 oz water) each night for 8 weeks. • Sodium oxybate 6 g, oral solution (12 mL) taken in 2 equally divided doses (6 mL added to 2 oz of water) each night for 8 weeks.
Reference Therapy, Dose and Mode of Administration: • Placebo (sodium citrate solution) 4.5 g, oral solution (9 mL) matching volume of Xyrem 4.5 g, taken in 2 equally divided doses (4.5 mL added to 2 oz water) each night. • Placebo (sodium citrate solution) 6 g, oral solution (12 mL) matching volume of Xyrem 6 g, taken in 2 equally divided doses (6 mL added to 2 oz water) each night.
The primary efficacy parameter was a binary composite parameter for the treatment of fibromyalgia syndrome. The proportion of subjects in each treatment group that met all 3 of the following response criteria was compared to assess the efficacy of Xyrem in response to fibromyalgia syndrome. • Pain Severity: as assessed by pain VAS data recorded 3 time a day by the subject in an electronic diary (eDiary). For pain VAS, a response was defined as a reduction in average pain of 20% or greater from baseline to Week 8. • Functionality (Fibromyalgia Impact Questionnaire [FIQ]): Change from baseline to a study visit was assessed. A response was defined as a reduction of 20% or greater in FIQ total score from baseline to Week 8. • Patient Global Impression of Change (PGIc): The subject's perception of the overall improvement in their fibromyalgia symptoms was assessed by means of the PGIc questionnaire completed at the end of study. A response to treatment was defined as a response of “Very much better” or “Much better” on the PGIc.
Severity of Pain: the mean change from baseline to a study visit in pain severity (VAS pain). The proportion of responders for pain, defined as the proportion of subjects who had at least 20% reduction in pain severity from baseline to a study visit.
Fibromyalgia Impact Questionnaire: The mean change from baseline to a study visit in FIQ total score and subscale scores. The proportion of FIQ responders, defined as the proportion of subjects who had at least a 20% reduction in FIQ total score from baseline to a study visit.
Subjective Assessments of Sleep and Fatigue: • Daytime Sleepiness: the mean change from baseline to a study visit in the Epworth Sleepiness Scale (ESS). • Sleep Patterns: the mean change from baseline to a study visit in the Jenkins Scale (JS). • Fatigue: the mean change from baseline to a study visit in the fatigue VAS score. • Functional Outcomes of Sleep Questionnaire (FOSQ): the mean changes from baseline to a study visit in FOSQ total score and subscale scores. […]

[2] = system: narcolepsy; settings: in vivo; cited from earlier work
[3] = system: brain; settings: in vivo; cited from earlier work
[4] = target: GABA-ketoglutarate transaminase (Homo sapiens, UniProt P80404); settings: cited from earlier work
GABA-ketoglutarate transaminase, sequence (P80404 29-500): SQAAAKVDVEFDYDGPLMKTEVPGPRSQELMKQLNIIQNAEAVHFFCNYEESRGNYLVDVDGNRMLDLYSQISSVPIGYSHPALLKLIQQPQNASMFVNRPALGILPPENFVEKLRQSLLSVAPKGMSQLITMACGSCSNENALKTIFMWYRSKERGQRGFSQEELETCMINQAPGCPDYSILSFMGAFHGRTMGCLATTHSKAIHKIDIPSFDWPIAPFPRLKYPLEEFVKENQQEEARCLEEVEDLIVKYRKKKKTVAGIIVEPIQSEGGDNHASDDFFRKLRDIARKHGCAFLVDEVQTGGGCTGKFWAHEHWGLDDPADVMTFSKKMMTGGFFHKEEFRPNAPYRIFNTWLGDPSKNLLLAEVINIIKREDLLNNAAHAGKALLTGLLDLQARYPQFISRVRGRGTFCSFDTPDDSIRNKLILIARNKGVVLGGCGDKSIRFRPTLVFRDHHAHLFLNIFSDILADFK

[5] = system: narcolepsy patients with cataplexy; settings: cited from earlier work
[6] = patients with less than about 1% slow wave sleep at baseline or screening
[7] = patients with ≥20% slow wave sleep prior to treatment

Compound: O=C(O)CCCO [oxybate, Gamma-hydroxybutyrate]
- oxybate response (FIQ, Pain VAS, Fatigue VAS, TPC) ([1]; low baseline slow wave sleep (quartile 1), FIG. 3A-3D): improved oxybate response
- response to oxybate (dose dependence) [1, 6]: dose-dependent response
- change from baseline in Fibromyalgia Impact Questionnaire (FIQ) [1, 6]: significant improvements
- change from baseline in pain visual analog scale (PVAS) [1, 6]: significant improvements
- response to oxybate (dose dependence) [1, 7]: did not exhibit a dose-dependent response
- change in FIQ from baseline ([1]; slow wave sleep quartile 1 (<13.5 min stage 3/4 sleep at baseline), 4.5 g and 6.0 g Xyrem vs placebo, FIG. 3A): significant improvements
- change in Fatigue VAS from baseline ([1]; slow wave sleep quartile 1 (<13.5 min stage 3/4 sleep at baseline), 4.5 g and 6.0 g Xyrem vs placebo, FIG. 3C): significant improvements
- change in Tender Points Count (TPC) from baseline ([1]; slow wave sleep quartile 1 (<13.5 min stage 3/4 sleep at baseline), 4.5 g and 6.0 g Xyrem vs placebo, FIG. 3D): significant improvements
- REM latency [2]: decreases
- REM sleep [2]: increases
- signs and symptoms of narcolepsy (daytime sleepiness, cataplexy, sleep paralysis, hypnagogic hallucinations) [2]: substantially reduces
- sleep apnea [2]: reduces
- total sleep time [2]: increases
- brain acetylcholine [3]: increases
- brain dopamine [3]: increases
- glucose utilization in the brain [3]: depression
- inhibition of GABA-ketoglutarate transaminase [4]: inhibition

Compound: O=C(O)CCCO [sodium oxybate]
- change from baseline in Fibromyalgia Impact Questionnaire (FIQ) [1, 7]: did not differ significantly
- change from baseline in pain visual analog scale (PVAS) [1, 7]: did not differ significantly
- consolidation of REM sleep [5]: increased
- duration of slow wave sleep [5]: increased
- number of sleep arousals [5]: decreased
